The test system of assay [1] is Na,K-ATPase α2β3 isoform complex. Kind of assay: biochemical. Also noted: species or system human. The conditions noted are these: ratio of Ki, Table 6. The source says:
(§1) Human β1, β2 and β3 were cloned into the pHIL-D2 expression vector containing the human α1 or α2. pHIL-D2 expression vectors containing porcine (p) α1, human (h) α1 or human α2 with Hisx10 tagged porcine β1 were previously generated (7, 9). Human β1 (Accession: P05026), human β2 (Accession: P14415) and human β3 (Accession: […]) cDNAs in pSD5 vector were a gift from K. Geering Univ. Lausanne Switzerland. The open reading frames and flanking regions of hβ1, hβ2 and hβ3 (in pSD5) were amplified separately by polymerase chain reaction (PCR) using synthetic primers containing BglII and SalI cleavage sites. Each one of the amplified fragments were digested with BglII and SalI and ligated to BglII and SalI treated plasmid pHIL-D2-(pα1/His10pβ1) to generate pHIL-D2 (pα1/His10hβ1or2or3). hβ1, hβ2 and hβ3 containing fragments were excised from pHIL-D2-(pα1/His10hβ1or2or3) and subcloned into pHIL-D2-(hα1/His10pβ1) or pHIL-D2-(hα2/His10pβ1) to produce pHIL-D2-(hα1/His10hβ1or2or3) and pHIL-D2-(hα2/His10hβ1or2or3). The newly created plasmids were analyzed for correct integration and correct sequence of the insert by restriction enzymatic digestions and sequencing. DNA of each construct was prepared in large quantities in E. coli XL-1 Blue for Pichia pastoris transformation.
(§2) Inhibition of Na,K-ATPase activity of the detergent-soluble α1β1, α2β1, and α3β1 complexes by CG's was determined as described (6) using either the αβ or αβFXYD1 complexes. […] The K0.5K was estimated by varying K concentration in a medium containing a fixed total K+choline chloride of 60 mM, and constant NaCl of 140 mM. Curves were fitted to the Hill function v=Vmax*[S]^n/([S]^n+K^n), where S is the K concentration, n is the Hill coefficient and K^n is K0.5K. For comparison of different curves the ratio v/Vmax for each curve was calculated and replotted. In experiments to assess inhibition of Na,K-ATPase activity by cardiac glycosides of the present invention, the percent inhibition VCG/V0 was calculated and Ki values were obtained by fitting the data to the function VCG/V0=Ki/([CG]+Ki)+ c. Inhibition was estimated in 3-8 separate experiments and average Ki values ±SEM were calculated. Significance of differences between Kiα1 and Kiα2 was calculated by the unpaired Student's t-test (p values). […] P values <0.05 were considered significant.

The target in assay [2] is T1, Na,K-ATPase α2β2 isoform complex (Homo sapiens, UniProt P50993).
T1 construct: made in house; host or cells: Pichia pastoris SMD1165
Kind of assay: biochemical.
Description: as §1, §2

In assay [3] the test system is Na,K-ATPase α2β2 isoform complex. Kind of assay: biochemical. The note with it: ratio of Ki, Table 6. Details: species or system human.
Description: as §1, §2

For assay [4], the target named is T2, Na,K-ATPase α2β3 isoform complex (Homo sapiens, UniProt P50993).
T2 construct: made in house; host or cells: Pichia pastoris SMD1165
Kind of assay: biochemical.
Description: as §1, §2

Assay [5] concerns Na,K-ATPase α2β1 isoform complex. The experiment in a line: biochemical. Type of assay: biochemical, human. The conditions noted are these: for Selectivity α1β1/α2/β1: ratio of Ki, Table 6; for Selectivity ratio Ki α1/α2 ± S.E.: Kiα1β1/Kiα2β1. Here is the method: (§3) Methods for transformation, culture of P. pastoris clones, protein expression of Na,K-ATPase human isoforms (α1β1, α2β1, α3β1), membrane preparation, solubilization of membranes in DDM, and purification on BD-Talon beads have been described in detail (6-9, 11, 25). In initial experiments the three purified isoform complexes (0.3-0.5 mg/ml) were eluted from the BD-Talon beads in a solution containing Imidazole 170 mM, NaCl 100 mM; Tricine.HCl 20 mM pH 7.4; C12E8, 0.1 mg/ml; SOPS 0.07 mg/ml cholesterol 0.01 mg/ml, glycerol 25%. In later experiments the isoforms complexes were reconstituted with purified FXYD1 on the BD-Talon beads together as described in detail in (10, 11) prior to elution of α1β1FXYD1, α2β1FXYD1 and α3β1FXYD1 complexes. The proteins were stored at −80° C. Protein concentration was determined with BCA (B9643 Sigma).
as §2

Assay [6] addresses T3, Na,K-ATPase α2β1 isoform complex (Homo sapiens, UniProt P50993). The experiment in a line: biochemical. Type of assay: biochemical. Also noted: made in house; host or cells: Pichia pastoris SMD1165. The conditions noted are these: Ki, nM ± SEM α2β1, Table 6. Here is the method:
as §3, §2

For assay [7], the target named is T4, Na,K-ATPase α1β1 isoform complex (Homo sapiens, UniProt P05023). The experiment in a line: biochemical. Also noted: made in house; host or cells: Pichia pastoris SMD1165. The conditions noted are these: Ki, nM ± SEM α1β1, Table 6. Here is the method: as §3, §2
Assay [8] concerns the target T4, Na,K-ATPase α1β1 isoform complex. Kind of assay: biochemical. The conditions noted are these: Ki ± S.E. α1, Table 2; α1β1. The method, then:
as §3, §2

Assay [9] has as its target T3, Na,K-ATPase α2β1 isoform complex. Kind of assay: biochemical. In kind it is biochemical. The note with it: Ki ± S.E. α2, Table 2; α2β1. Here is the method: as §3, §2
The test system of assay [10] is intra-ocular pressure (IOP) of rabbits. The experiment in a line: 4-aminopyridine (4AP)-induced ocular hypertension in rabbits. In kind it is in vivo, New Zealand white rabbits. The note with it: applied topically prior to 4AP. Here is the method:
Intra-ocular pressure in rabbits was measured using of a “Reichert Model 30™ Pneumatonometer” after anesthetizing the cornea with local anesthetic.
Since the IOP reflects a balance of the inflow and outflow of aqueous humour, reduction of the increased 4AP-induced inflow of aqueous humour by cardiac glycosides should prevent the increase in IOP. Thus, the standard experimental design to test effects of cardiac glycosides involved topical application of the compounds (1 drop in each eye) 30 minutes prior to application of 4AP and measurement of IOP every 30 minutes over five hours. […] Each experiment was done three times, but the figures depict a representative experiment using a different rabbit for each concentration of the cardiac glycoside.
DGlyN or DMe (0.1 or 1 mM) were applied one hour after the first application of 4AP, which was added every two hours.
(§4) New Zealand white rabbits (3-3.5 kg) about 1 year old, of either sex, were housed individually in separate cages in animal room conditions on a reversed, 12-hour dark/light cycle. For the experiments the animals were transferred to rabbit restrainers in a quiet and calm atmosphere (FIG. 1). […] Animal care and treatment were subject to the approval of the institutional committee for animal experiments, Weizmann Institute IACUC permission (no 04270911-2).
(§5) IOP (mm Hg) of rabbits was measured using a calibrated Pneumatonometer (Model 30, Reichert technologies, FIG. 1). A local anesthetic Oxybuprocaine HCl (0.4%, 25 μl) was applied to each cornea about a minute before IOP measurements. Two baseline IOP readings were taken before topical administration of the CG (or PBS as control) and after half an hour (Zero time). […] At zero time one drop of 4AP (40 mg/ml, 30 μl) or IB-MECA (1 μM, 30 μl) was administered to both eyes of each rabbit IOP measurements were made at different times as indicated in each experiment. In the experiments for which the IOP was elevated for several hours, 4AP was added every […] or IB-MECA every 2 hours. […] In all cases the figures depict the average effect on IOP (i.e for four or six eyes) compared to control ±SEM. […] Significance of differences from the control was calculated by the unpaired Students t-test (p values), p values <0.05 were considered significant. Corneal thickness (μm) was measured using an ultrasonic pachymeter (Sonogage pachometer, Cleveland, USA), before and during the experiment with CG and 4AP treatments. The values represent averages of three independent measurements for each eye.

Assay [11] shares this test system. The experiment in a line: IB-MECA-induced ocular hypertension in rabbits. In kind it is in vivo, New Zealand white rabbits. The conditions noted are these: single drop, 1 μM. The method, then: IB-MECA induces acute ocular hypertension by a different and well-defined mechanism. Namely, IB-MECA is a selective agonist of the A3-adenosine receptor, and rises aqueous humour inflow and IOP by activating Cl channels of the NPE cells (18, 19). […] FIG. 8A depicts the effects of DMe (0.1-1 mM) applied prior to the IB-MECA, and a similar result was obtained for DGlyN (not shown). FIG. 8B depicts effects of digoxigenin, DGlyN and DMe (1 mM) applied after the IB-MECA.
as §4, §5

Each structure is given as a SMILES string.

The Ki is the dissociation constant of the complex between target and ligand, obtained from inhibition or displacement. Lower therefore signals a stronger hold on the target.

For the molecule `CC1CN(C[Si](C)(C)C)CCC(OC2C(O)CC(OC3C(O)CC(OC4CCC5(C)C(CCC6C5CC(O)C5(C)C(C7=CC(=O)OC7)CCC65O)C4)OC3C)OC2C)O1` (stereo not drawn) [DTMS], in assay [1], the “Selectivity α1β1/α2β3” value amounted to 13.8. The Ki was 0.015 µM in assay [2], 0.0078 µM in assay [4], 31.5 nM in assay [6] and 108 nM in [7]. Further, in assay [3], the “Selectivity α1β1/α2/β2” value came to 7.2. In addition, the “Selectivity α1β1/α2/β1” value in assay [5] was 3.4.
In the case of `CC1CN(C(C)C)CCC(OC2C(O)CC(OC3C(O)CC(OC4CCC5(C)C(CCC6C5CC(O)C5(C)C(C7=CC(=O)OC7)CCC65O)C4)OC3C)OC2C)O1` (stereo not drawn) [DIP], the “Selectivity α1β1/α2β3” value in assay [1] is on record as 14.4. Also, the Ki was determined as 0.0167 ± 0.0019 µM in assay [2], 0.0103 ± 0.0018 µM in assay [4], 28.9 ± 1.7 nM in assay [6] and 149 ± 20.7 nM in assay [7]. Moreover, the “Selectivity α1β1/α2/β2” value in [3] is on record as 8.9. Besides, in assay [5], the “Selectivity α1β1/α2/β1” value is given as 5.1.
For `CC1CN(C(C)(C)C)CCC(OC2C(O)CC(OC3C(O)CC(OC4CCC5(C)C(CCC6C5CC(O)C5(C)C(C7=CC(=O)OC7)CCC65O)C4)OC3C)OC2C)O1` (stereo not drawn) [DtB], the “Selectivity α1β1/α2β3” value in assay [1] came out at 8.2. The Ki stood at 0.0184 ± 0.0011 µM in [2], 0.0163 ± 0.00028 µM in assay [4], 21.6 ± 5.6 nM in assay [6] and 135 ± 12.1 nM in assay [7]. The “Selectivity α1β1/α2/β2” value in assay [3] came to 7.3. In assay [5], the “Selectivity α1β1/α2/β1” value came to 6.2.
For the molecule `CCN1CCC(OC2C(O)CC(OC3C(O)CC(OC4CCC5(C)C(CCC6C5CC(O)C5(C)C(C7=CC(=O)OC7)CCC65O)C4)OC3C)OC2C)OC(C)C1` (stereo not drawn) [DEt], in [1], the “Selectivity α1β1/α2β3” value is recorded as 9.5. For the same molecule, the Ki came to 0.0164 ± 0.0016 µM in [2]; 0.0144 ± 0.00127 µM in assay [4]; 0.053 ± 0.0034 µM in [8]; 0.0185 ± 0.0049 µM in [9]; 23.2 ± 0.9 nM in [6]; 138 ± 12.6 nM in [7]. For the same molecule, in assay [3], the “Selectivity α1β1/α2/β2” value is 8.3. In assay [5], the “Selectivity ratio Ki α1/α2 ± S.E.” value is recorded as 2.88 ± 0.78. In addition, the “Selectivity α1β1/α2/β1” value in assay [5] is given as 5.9.
Consider `CC1CN(CC(F)(F)F)CCC(OC2C(O)CC(OC3C(O)CC(OC4CCC5(C)C(CCC6C5CC(O)C5(C)C(C7=CC(=O)OC7)CCC65O)C4)OC3C)OC2C)O1` (stereo not drawn) [DMeCF3], for which, in assay [1], the “Selectivity α1β1/α2β3” value worked out at 9.6. Further, the Ki in assay [2] was determined as 0.0181 ± 0.0019 µM; in assay [4], 0.0124 ± 0.0015 µM; in assay [8], 0.199 ± 0.033 µM; in assay [9], 0.044 ± 0.007 µM; in assay [6], 28.6 ± 0.9 nM; in assay [7], 119 ± 15 nM. For the same molecule, the “Selectivity α1β1/α2/β2” value in [3] is on record as 6.5. In addition, the “Selectivity ratio Ki α1/α2 ± S.E.” value in assay [5] amounted to 4.50 ± 1.0. In assay [5], the “Selectivity α1β1/α2/β1” value is 4.1.
Consider `CCCN1CCC(OC2C(O)CC(OC3C(O)CC(OC4CCC5(C)C(CCC6C5CC(O)C5(C)C(C7=CC(=O)OC7)CCC65O)C4)OC3C)OC2C)OC(C)C1` (stereo not drawn) [DP], for which the “Selectivity α1β1/α2β3” value in assay [1] worked out at 8.8. Further, the Ki amounted to 0.0105 ± 0.0018 µM in assay [2], 0.0098 ± 0.0011 µM in [4], 18.3 ± 1.68 nM in assay [6] and 87.7 ± 7.9 nM in assay [7]. Further, the “Selectivity α1β1/α2/β2” value in assay [3] is 8.3. Besides, the “Selectivity α1β1/α2/β1” value in assay [5] came out at 4.8.
As for `CC(C)CN1CCC(OC2C(O)CC(OC3C(O)CC(OC4CCC5(C)C(CCC6C5CC(O)C5(C)C(C7=CC(=O)OC7)CCC65O)C4)OC3C)OC2C)OC(C)C1` (stereo not drawn) [DIB], the Ki came to 0.01 ± 0.0008 µM in assay [2], 0.0058 µM in [4], 20.6 ± 1.4 nM in assay [6] and 92 ± 8.9 nM in assay [7]. The “Concentration required to fully prevent the rise in IOP” value in assay [10] is greater than 30 µM.
`CNC(=O)[C@H]1O[C@@H](n2cnc3c(NCc4cccc(I)c4)ncnc32)[C@H](O)[C@@H]1O` [IB-MECA, reference compound]: the “Effect on IOP” value in [11] is listed as “significant but transient increase in IOP”.

Values taken from patent publication US9938316B2, “Selective inhibitors of α2 isoform of Na,K-ATPase and use thereof for reduction of intra-ocular pressure and as cardiotonic agents” (priority 2013, dated 2018).
